The term pKi denotes −log10 of the Ki, conventionally taken in molar units.

pKi: −log10 of the molar value. Where a SMILES comes first, the peptide text is derived from it. [ ]: non-standard residue; d: D form. The star is where a group is joined. pY = N[C@@H](Cc1ccc(OP(=O)(O)O)cc1)C(=O)O; Cbz = O=C(OCc1ccccc1)*; NHBn = c1ccc(CN*)cc1

For this test, the target named is Signal transducer and activator of transcription 3 (Homo sapiens, UniProt P40763). Kind of test: Displacement of fluorescent tagged beta-(Ala)-beta-(Ala)-G-pYLPQTV from human recombinant STAT3 by fluorescence polarization assay.
Sequence of Signal transducer and activator of transcription 3 (P40763 whole entry): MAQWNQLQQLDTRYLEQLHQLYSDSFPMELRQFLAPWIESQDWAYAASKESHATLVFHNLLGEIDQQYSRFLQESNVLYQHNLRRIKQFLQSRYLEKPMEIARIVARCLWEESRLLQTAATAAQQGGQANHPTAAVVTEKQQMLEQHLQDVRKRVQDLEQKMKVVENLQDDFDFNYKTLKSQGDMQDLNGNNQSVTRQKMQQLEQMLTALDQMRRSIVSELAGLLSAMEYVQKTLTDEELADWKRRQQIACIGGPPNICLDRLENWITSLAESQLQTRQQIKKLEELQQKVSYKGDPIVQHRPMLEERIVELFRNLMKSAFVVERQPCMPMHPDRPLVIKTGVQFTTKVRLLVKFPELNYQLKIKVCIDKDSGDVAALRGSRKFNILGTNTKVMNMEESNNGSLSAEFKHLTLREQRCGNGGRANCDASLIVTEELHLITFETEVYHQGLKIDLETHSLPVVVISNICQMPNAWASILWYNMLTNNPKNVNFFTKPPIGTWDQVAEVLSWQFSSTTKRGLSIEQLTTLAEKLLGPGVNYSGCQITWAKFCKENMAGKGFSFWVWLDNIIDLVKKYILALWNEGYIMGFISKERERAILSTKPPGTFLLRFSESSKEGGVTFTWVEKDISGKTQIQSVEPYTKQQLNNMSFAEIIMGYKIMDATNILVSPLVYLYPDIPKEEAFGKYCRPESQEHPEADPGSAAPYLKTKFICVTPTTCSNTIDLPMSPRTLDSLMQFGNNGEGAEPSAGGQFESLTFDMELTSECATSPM
For the compound `NC(=O)CC[C@H](NC(=O)CN1CCC[C@H](NC(=O)[C@H](Cc2ccc(OP(=O)(O)O)cc2)NC(=O)OCc2ccccc2)C1=O)C(=O)NCc1ccccc1`, the pKi was 5.50.

For the compound `NC(=O)CC[C@H](NC(=O)CN1CCCC[C@H](NC(=O)[C@H](Cc2ccc(OP(=O)(O)O)cc2)NC(=O)OCc2ccccc2)C1=O)C(=O)NCc1ccccc1`, the negative logarithm of the Ki (pKi) is 6.72. `CC(C)C[C@H](NC(=O)[C@H](Cc1ccc(OP(=O)(O)O)cc1)NC(=O)OCc1ccccc1)C(=O)N1CCC[C@H]1C(=O)N[C@@H](CCC(N)=O)C(=O)NCc1ccccc1` (Cbz-[pY]LPQ-NHBn): the pKi is 6.46.

Values taken from ChEMBL document CHEMBL1153323, “Design, synthesis, and evaluation of peptidomimetics containing Freidinger lactams as STAT3 inhibitors” (Bioorg Med Chem Lett, 2009).
